From ChEMBL document CHEMBL4118122, “Identification and biological evaluation of thiazole-based inverse agonists of RORγt” (Bioorg Med Chem Lett, 2018)

Assays:
[1] = target: T1, 5-hydroxytryptamine receptor 2B (Homo sapiens, UniProt P41595); assay: Displacement of [125I]+/-DOI from human recombinant 5-HT2B receptor after 60 mins by scintillation counting analysis
[2] = target: 5-hydroxytryptamine receptor 1A (Homo sapiens, UniProt P08908); assay: Displacement of [3H]8-OH-DPAT from recombinant human 5-HT1A receptor after 60 mins by scintillation counting analysis
[3] = Binding affinity to GABA-gated chloride channel (unknown origin) by antagonist radioligand binding assay; set-up: species or system Homo sapiens
[4] = target: Serine/threonine-protein kinase Nek2 (Homo sapiens) (UniProt P51955); assay: Inhibition of recombinant full length His-tagged human NEK2 expressed in baculovirus expression system at 10 uM in presence of ATP relative to control
[5] = target: 5-hydroxytryptamine receptor 7 (Homo sapiens, UniProt P34969); assay: Displacement of [3H]LSD from human recombinant 5-HT7 receptor after 120 mins by scintillation counting analysis
Histamine H1 receptor = Histamine H1 receptor (Homo sapiens, UniProt P35367); assay: Displacement of [3H]pyrilamine from human recombinant histamine H1 receptor at 1 uM after 60 mins by scintillation counting analysis relative to control
Chain of Histamine H1 receptor (P35367 whole entry): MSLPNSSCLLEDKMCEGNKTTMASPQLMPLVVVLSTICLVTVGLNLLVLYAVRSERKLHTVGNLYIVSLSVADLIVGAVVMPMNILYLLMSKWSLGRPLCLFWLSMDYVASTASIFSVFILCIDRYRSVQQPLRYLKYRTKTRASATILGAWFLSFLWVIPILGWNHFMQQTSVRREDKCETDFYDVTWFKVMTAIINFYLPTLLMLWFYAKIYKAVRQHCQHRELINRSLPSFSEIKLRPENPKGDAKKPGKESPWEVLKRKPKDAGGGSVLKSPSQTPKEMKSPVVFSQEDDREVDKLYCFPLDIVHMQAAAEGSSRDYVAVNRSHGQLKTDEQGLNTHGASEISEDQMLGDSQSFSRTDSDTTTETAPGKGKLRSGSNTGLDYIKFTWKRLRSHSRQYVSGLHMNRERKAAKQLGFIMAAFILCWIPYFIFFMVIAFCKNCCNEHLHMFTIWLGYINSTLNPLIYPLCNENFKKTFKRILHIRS

[6] = target: Delta-type opioid receptor (Homo sapiens, UniProt P41143); assay: Displacement of [3H]DADLE from human recombinant delta opioid receptor at 1 uM after 60 mins by scintillation counting analysis relative to control
[7] = target: Galanin receptor type 2 (Homo sapiens) (UniProt O43603); assay: Displacement of [125I]-endothelin-1 from human recombinant GAL2 receptor at 1 uM after 120 mins by scintillation counting analysis relative to control
Chain of Galanin receptor type 2 (Homo sapiens) (O43603 whole entry): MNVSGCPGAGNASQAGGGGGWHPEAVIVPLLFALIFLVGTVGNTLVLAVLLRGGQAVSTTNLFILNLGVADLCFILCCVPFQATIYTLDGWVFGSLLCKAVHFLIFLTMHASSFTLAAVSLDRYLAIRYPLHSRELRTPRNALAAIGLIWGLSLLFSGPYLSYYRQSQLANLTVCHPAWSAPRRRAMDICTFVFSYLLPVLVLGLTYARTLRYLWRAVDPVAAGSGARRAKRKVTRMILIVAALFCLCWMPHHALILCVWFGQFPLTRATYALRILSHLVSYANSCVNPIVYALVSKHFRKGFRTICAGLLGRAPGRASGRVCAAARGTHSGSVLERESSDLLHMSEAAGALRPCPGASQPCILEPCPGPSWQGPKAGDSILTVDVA

[8] = target: Small conductance calcium-activated potassium channel (Rattus norvegicus, UniProt P70604+P70606+P70605); assay: Displacement of [125I]apamin from rat brain SkCa channel after 60 mins by scintillation counting analysis
[9] = target: Cyclin-dependent kinase 1/cyclin B1 (Homo sapiens) (UniProt P06493+P14635); assay: Inhibition of recombinant full length His-tagged human CDK1/Cyclin B expressed in baculovirus expression system at 10 uM in presence of ATP relative to control
Chain of Cyclin-dependent kinase 1/cyclin B1 (Homo sapiens) (P06493 whole entry, looked up): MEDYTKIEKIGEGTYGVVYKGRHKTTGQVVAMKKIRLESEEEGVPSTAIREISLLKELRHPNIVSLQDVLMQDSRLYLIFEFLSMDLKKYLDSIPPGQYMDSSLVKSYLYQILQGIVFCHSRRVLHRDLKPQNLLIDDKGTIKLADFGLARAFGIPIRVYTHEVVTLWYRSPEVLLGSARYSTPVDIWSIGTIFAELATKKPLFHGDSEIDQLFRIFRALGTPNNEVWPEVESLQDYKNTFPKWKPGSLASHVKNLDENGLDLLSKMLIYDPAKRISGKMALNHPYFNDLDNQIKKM
Chain of Cyclin-dependent kinase 1/cyclin B1 (Homo sapiens) (P14635 whole entry, looked up): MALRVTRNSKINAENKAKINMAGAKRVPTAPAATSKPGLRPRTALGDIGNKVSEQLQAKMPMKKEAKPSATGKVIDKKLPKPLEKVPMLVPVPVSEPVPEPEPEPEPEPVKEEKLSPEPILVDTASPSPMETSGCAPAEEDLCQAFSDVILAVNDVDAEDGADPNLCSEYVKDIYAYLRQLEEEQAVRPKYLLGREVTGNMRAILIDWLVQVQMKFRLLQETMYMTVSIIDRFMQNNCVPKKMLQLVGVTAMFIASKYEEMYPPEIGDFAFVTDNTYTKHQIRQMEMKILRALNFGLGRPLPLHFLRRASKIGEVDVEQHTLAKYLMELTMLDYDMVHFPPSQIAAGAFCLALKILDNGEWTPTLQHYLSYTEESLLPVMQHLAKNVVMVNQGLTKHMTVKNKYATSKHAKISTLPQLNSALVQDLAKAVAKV

[10] = target: 5-hydroxytryptamine receptor 6 (Homo sapiens, UniProt P50406); assay: Displacement of [3H]LSD from human recombinant 5-HT6 receptor after 120 mins by scintillation counting analysis
[11] = target: Cholecystokinin receptor type A (Homo sapiens, UniProt P32238); assay: Displacement of [125I]CCK-8s from human recombinant CCK1 receptor after 60 mins by scintillation counting analysis
[12] = AUC (0 to infinity) in Sprague-Dawley rat at 5 mg/kg, po; type: ADME, organism-based; set-up: dose 5 mg/kg, route oral, time infinity; conditions: in vivo
Rattus norvegicus = species: Rattus norvegicus; assay: Displacement of [125I]alpha-dendrotoxin from rat brain voltage-gated K channel at 1 uM after 60 mins by scintillation counting analysis relative to control
[13] = target: Somatostatin receptor (Mus musculus) (UniProt P30935+O08858+P30875+P30873+P49660); assay: Displacement of [125I]Tyr11-somatostatin-14 from mouse SST receptor at 10 uM after 60 mins by scintillation counting analysis relative to control; type: protein assay
[14] = target: T1, 5-hydroxytryptamine receptor 2B; assay: Displacement of [125I]+/-DOI from human recombinant 5-HT2B receptor at 1 uM after 60 mins by scintillation counting analysis relative to control
[15] = target: Adenosine receptor A1 (Homo sapiens) (UniProt P30542); assay: Displacement of [3H]-DPCPX from human recombinant adenosine A1 receptor at 1 uM after 60 mins by scintillation counting analysis relative to control
Chain of Adenosine receptor A1 (Homo sapiens) (P30542 whole entry, the tested form may be a part): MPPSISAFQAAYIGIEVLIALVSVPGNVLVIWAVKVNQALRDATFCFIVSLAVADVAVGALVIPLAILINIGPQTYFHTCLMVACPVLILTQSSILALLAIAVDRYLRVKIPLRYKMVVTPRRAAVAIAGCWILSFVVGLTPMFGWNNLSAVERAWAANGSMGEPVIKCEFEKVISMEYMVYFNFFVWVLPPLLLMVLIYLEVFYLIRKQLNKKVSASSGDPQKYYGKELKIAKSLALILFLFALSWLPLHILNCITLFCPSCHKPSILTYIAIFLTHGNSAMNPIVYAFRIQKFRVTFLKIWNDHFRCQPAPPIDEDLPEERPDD

[16] = target: Fibroblast growth factor receptor 1 (Homo sapiens) (UniProt P11362); assay: Inhibition of recombinant His-tagged human FGFR1 cytoplasmic domain expressed in baculovirus expression system at 10 uM in presence of ATP relative to control
D(2) dopamine receptor = D(2) dopamine receptor (Homo sapiens, UniProt P14416); assay: Displacement of [3H]7-OH-DPAT from human recombinant dopamine D2S receptor at 10 uM after 60 mins by scintillation counting analysis relative to control
Adenosine receptor A1 = Adenosine receptor A1 (Homo sapiens, UniProt P30542); assay: Displacement of [3H]-DPCPX from human recombinant adenosine A1 receptor after 60 mins by scintillation counting analysis
[17] = target: Serine/threonine-protein kinase Chk2 (Homo sapiens) (UniProt O96017); assay: Inhibition of recombinant full length His-tagged human CHK2 expressed in baculovirus expression system at 10 uM in presence of ATP relative to control
Chain of Serine/threonine-protein kinase Chk2 (Homo sapiens) (O96017 whole entry): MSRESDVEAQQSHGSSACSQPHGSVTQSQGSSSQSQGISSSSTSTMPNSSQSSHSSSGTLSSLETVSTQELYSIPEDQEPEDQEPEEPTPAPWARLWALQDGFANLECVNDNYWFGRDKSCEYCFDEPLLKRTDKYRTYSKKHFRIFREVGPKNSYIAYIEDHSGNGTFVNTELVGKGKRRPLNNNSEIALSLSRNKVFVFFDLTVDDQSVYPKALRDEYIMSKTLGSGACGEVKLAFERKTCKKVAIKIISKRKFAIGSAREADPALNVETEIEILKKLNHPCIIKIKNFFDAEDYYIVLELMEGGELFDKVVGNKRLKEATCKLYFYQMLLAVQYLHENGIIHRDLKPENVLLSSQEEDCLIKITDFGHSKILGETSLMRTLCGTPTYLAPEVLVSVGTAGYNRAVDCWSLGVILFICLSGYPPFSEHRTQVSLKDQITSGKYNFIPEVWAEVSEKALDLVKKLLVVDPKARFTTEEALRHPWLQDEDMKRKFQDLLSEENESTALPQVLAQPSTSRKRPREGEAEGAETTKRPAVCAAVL

[18] = target: G protein-coupled receptor kinase 4 (Homo sapiens) (UniProt P32298); assay: Inhibition of recombinant human full length GST-tagged GRK4 expressed in baculovirus expression system at 10 uM in presence of ATP relative to control
Chain of G protein-coupled receptor kinase 4 (Homo sapiens) (P32298 whole entry, looked up): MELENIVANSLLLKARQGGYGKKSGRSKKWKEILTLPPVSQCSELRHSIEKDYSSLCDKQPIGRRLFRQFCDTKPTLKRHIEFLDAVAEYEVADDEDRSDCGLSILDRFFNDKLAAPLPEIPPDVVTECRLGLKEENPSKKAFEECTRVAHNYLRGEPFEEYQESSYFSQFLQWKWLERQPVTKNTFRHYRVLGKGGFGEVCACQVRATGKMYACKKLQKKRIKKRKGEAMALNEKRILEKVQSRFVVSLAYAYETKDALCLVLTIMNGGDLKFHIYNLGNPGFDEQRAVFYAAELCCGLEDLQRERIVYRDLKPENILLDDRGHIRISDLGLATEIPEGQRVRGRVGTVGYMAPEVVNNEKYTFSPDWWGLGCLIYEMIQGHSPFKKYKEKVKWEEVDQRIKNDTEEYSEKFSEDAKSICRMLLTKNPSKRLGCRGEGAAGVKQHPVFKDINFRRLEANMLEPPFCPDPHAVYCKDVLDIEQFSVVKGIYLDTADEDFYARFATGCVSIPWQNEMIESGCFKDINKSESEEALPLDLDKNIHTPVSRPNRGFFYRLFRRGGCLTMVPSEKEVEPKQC

[19] = target: Glycogen synthase kinase-3 beta (Homo sapiens) (UniProt P49841); assay: Inhibition of recombinant full length human His-tagged GSK3beta expressed in baculovirus expression system at 10 uM in presence of ATP relative to control
[20] = target: Kappa-type opioid receptor (Homo sapiens, UniProt P41145); assay: Displacement of [3H]U69593 from human kappa receptor at 1 uM after 60 mins by scintillation counting analysis relative to control
[21] = target: Serine/threonine-protein kinase PLK1 (Homo sapiens) (UniProt P53350); assay: Inhibition of full length recombinant His-tagged human PLK1 expressed in baculovirus expression system at 10 uM in presence of ATP relative to control
Melanocortin receptor 4 = Melanocortin receptor 4 (Homo sapiens, UniProt P32245); assay: Displacement of [125I]NDP-alpha -MSH from human recombinant MC4 receptor after 120 mins by scintillation counting analysis
[22] = target: Small conductance calcium-activated potassium channel (Rattus norvegicus) (UniProt P70604+P70606+P70605); assay: Displacement of [125I]apamin from rat brain SkCa channel at 1 uM after 60 mins by scintillation counting analysis relative to control
[23] = Terminal half life in Sprague-Dawley rat at 5 mg/kg, po; type: ADME, organism-based; conditions: in vivo, read-out: beta t1/2 (converted)
B2 bradykinin receptor = B2 bradykinin receptor (Homo sapiens, UniProt P30411); assay: Displacement of [3H]bradykinin from human recombinant B2 receptor after 60 mins by scintillation counting analysis
[24] = target: Neuropeptide Y receptor type 1 (Homo sapiens) (UniProt P25929); assay: Displacement of [125I]peptide YY from human Y1 receptor at 10 uM after 120 mins by scintillation counting analysis relative to control
[25] = Half life in rat microsomes; type: ADME, Microsome
[26] = target: Muscarinic acetylcholine receptor M2 (Homo sapiens, UniProt P08172); assay: Displacement of [3H]AF-DX 384 from human recombinant M2 receptor after 60 mins by scintillation counting analysis
Chain of Muscarinic acetylcholine receptor M2 (P08172 whole entry): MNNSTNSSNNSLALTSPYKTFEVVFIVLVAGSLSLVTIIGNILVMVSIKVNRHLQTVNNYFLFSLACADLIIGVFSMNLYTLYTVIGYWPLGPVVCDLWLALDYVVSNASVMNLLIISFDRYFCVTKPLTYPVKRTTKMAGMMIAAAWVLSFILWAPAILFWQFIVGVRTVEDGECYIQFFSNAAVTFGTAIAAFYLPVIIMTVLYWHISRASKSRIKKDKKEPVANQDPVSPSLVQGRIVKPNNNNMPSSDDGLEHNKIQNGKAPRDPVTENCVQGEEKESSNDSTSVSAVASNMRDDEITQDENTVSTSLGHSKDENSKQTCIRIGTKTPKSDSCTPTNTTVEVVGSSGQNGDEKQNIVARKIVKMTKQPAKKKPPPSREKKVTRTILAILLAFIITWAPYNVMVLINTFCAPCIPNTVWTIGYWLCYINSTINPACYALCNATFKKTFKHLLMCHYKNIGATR

[27] = target: 5-hydroxytryptamine receptor 3A (Homo sapiens, UniProt P46098); assay: Displacement of [3H]BRL 43694 from human recombinant 5-HT3 receptor after 120 mins by scintillation counting analysis
Chain of 5-hydroxytryptamine receptor 3A (P46098 whole entry): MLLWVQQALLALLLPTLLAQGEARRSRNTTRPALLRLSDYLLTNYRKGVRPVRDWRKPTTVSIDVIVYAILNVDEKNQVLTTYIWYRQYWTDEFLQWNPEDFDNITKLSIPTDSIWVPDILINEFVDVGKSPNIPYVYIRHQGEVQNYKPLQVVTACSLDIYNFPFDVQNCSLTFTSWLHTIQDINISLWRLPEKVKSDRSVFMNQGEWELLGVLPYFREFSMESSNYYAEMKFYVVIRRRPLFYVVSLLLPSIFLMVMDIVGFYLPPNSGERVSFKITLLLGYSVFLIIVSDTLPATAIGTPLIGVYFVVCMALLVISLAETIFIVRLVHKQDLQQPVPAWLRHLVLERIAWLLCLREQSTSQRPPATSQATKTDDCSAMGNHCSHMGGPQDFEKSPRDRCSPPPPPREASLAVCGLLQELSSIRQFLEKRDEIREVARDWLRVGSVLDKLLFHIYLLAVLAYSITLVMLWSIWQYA

[28] = target: Vasoactive intestinal polypeptide receptor 1 (Homo sapiens) (UniProt P32241); assay: Displacement of [125I]VIP from human recombinant VPAC1 receptor at 10 uM after 60 mins by scintillation counting analysis relative to control
Chain of Vasoactive intestinal polypeptide receptor 1 (Homo sapiens) (P32241 whole entry): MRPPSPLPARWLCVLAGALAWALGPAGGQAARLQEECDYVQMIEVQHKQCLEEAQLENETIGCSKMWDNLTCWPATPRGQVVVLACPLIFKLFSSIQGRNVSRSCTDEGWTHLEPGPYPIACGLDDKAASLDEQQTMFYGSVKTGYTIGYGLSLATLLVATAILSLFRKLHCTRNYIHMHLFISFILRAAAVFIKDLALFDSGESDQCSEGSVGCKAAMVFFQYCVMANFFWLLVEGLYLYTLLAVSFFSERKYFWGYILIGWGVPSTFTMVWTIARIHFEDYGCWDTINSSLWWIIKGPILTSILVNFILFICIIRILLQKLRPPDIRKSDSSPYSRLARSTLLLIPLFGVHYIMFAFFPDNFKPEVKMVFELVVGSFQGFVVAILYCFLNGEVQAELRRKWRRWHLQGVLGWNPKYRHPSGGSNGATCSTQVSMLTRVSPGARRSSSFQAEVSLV

T1 sequence (P41595 whole entry): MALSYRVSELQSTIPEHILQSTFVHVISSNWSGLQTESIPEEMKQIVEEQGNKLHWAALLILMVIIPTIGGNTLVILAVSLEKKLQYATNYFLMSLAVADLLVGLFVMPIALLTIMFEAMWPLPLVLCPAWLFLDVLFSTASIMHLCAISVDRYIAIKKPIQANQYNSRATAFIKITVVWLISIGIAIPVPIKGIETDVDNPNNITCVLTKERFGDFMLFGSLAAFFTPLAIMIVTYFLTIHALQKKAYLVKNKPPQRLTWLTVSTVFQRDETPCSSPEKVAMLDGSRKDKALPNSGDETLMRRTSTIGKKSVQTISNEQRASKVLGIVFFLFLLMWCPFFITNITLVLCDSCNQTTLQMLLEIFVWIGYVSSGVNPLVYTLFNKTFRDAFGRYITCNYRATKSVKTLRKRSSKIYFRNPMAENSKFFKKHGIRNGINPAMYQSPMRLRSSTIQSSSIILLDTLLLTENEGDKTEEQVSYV

Which IC50 [1] does the source give for `CC(C)(C)NS(=O)(=O)c1ccc(-c2sc(C(=O)N[C@H]3C[C@H](C(=O)O)C3)nc2CC2CCCCC2)c2ccccc12` here?
Its IC50 is 3.2 nM.

What about the IC50 [2] of the same compound?
The IC50 was 0.43 nM.

And the IC50 [3]?
Its IC50 is 220 nM.

And the inhibition [4]?
The inhibition was -6%.

What about the IC50 [5] of the same compound?
Its IC50 is 0.39 nM.

What about the inhibition (Histamine H1 receptor) of the same compound?
The inhibition was 11%.

And the inhibition [6]?
Its inhibition is 12%.

What about the inhibition [7] of the same compound?
Its inhibition is under 10%.

What about the IC50 [8] of the same compound?
Its IC50 is 0.012 nM.

And the inhibition [9]?
Its inhibition is -3%.

What about the IC50 [10] of the same compound?
Its IC50 is 254 nM.

What about the IC50 [11] of the same compound?
Its IC50 is 0.12 nM.

What about the AUC(0-inf) [12] of the same compound?
Its AUC(0-inf) is 328 ng·h/mL.

And the inhibition (Rattus norvegicus)?
The inhibition was under 10%.

And the inhibition [13]?
The inhibition was under 10%.

And the inhibition [14]?
Its inhibition is under 10%.

What about the inhibition [15] of the same compound?
The inhibition was under 10%.

What about the inhibition [16] of the same compound?
The inhibition was 2%.

And the inhibition (D(2) dopamine receptor)?
The inhibition was 19%.

And the IC50 (Adenosine receptor A1)?
The IC50 was 0.61 nM.

And the inhibition [17]?
The inhibition was -1%.

What about the inhibition [18] of the same compound?
The inhibition was -3%.

And the inhibition [19]?
Its inhibition is -3%.

And the inhibition [20]?
The inhibition was under 10%.

And the inhibition [21]?
The inhibition was -6%.

And the IC50 (Melanocortin receptor 4)?
Its IC50 is 0.21 nM.

And the inhibition [22]?
The inhibition was under 10%.

And the half-life [23]?
Its half-life is 2.1 h.

What about the IC50 (B2 bradykinin receptor) of the same compound?
The IC50 was 21 nM.

What about the inhibition [24] of the same compound?
The inhibition was under 10%.

What about the half-life [25] of the same compound?
The half-life was 0.783 h.

What about the IC50 [26] of the same compound?
Its IC50 is 48 nM.

What about the IC50 [27] of the same compound?
The IC50 was 4.9 nM.

What about the inhibition [28] of the same compound?
Its inhibition is under 10%.
